The values that follow come from US11807624B2, “Substituted pyrimidinones as agonists of the APJ receptor” (AMGEN INC., priority 2018, dated 2023).

human APJ receptor, sequence (P35414 whole entry): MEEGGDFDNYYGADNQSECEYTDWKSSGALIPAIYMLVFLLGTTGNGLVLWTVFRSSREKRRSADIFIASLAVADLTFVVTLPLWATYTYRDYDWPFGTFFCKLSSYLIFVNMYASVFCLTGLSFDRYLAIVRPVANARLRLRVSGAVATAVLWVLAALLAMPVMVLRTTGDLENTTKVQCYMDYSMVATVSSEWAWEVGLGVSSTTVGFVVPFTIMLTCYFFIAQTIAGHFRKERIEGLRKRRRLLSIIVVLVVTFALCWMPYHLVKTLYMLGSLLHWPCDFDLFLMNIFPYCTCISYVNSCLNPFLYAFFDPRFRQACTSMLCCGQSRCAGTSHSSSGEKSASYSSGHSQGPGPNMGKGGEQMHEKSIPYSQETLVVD
human AT1R receptor expressed in the CHO cell line, sequence (P30556 whole entry): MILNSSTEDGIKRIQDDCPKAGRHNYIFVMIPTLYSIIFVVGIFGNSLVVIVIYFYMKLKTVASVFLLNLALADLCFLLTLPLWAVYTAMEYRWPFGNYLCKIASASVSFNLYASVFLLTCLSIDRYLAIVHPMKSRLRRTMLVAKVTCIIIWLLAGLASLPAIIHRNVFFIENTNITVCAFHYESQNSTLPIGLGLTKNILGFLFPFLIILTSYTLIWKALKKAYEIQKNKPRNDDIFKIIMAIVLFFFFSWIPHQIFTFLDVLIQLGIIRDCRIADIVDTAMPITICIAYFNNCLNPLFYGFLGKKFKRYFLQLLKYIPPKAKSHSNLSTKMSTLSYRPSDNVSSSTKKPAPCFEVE

The test system of the first test is isolated cardiomyocyctes.
Experiment: not given
The note with it: isolated cardiomyocytes, exogenous apelin; cited from earlier work.
For the compound apelin, the “increase in sarcomere shortening” value was “up to 140%”.

In another test the target is human APJ receptor (Homo sapiens (Human), UniProt P35414). Kind of test: [35S]GTPγS binding assay (hAPJ SPA). Type of test: biochemical. The note with it: membranes from CHO cells stably expressing human APJ receptor, read-out: Activity hAPJ SPA EC50 IP. How it is done:
[^35S]GTPγS Binding The human APJ receptor was cloned by polymerase chain reaction and the gene encoding the receptor was subcloned in pFLAG-CMV™-3 expression vector (Sigma, Saint Louis, Mo. USA) in-house at Amgen. A GTPγS binding assay was performed on membranes prepared from CHO cells stably expressing human APJ receptor. The optimum experimental conditions for the concentrations of GDP, MgCl2, and NaCl in the assay buffer were initially determined. […] Incubation was at RT for 90 min and the microplate was read using a ViewLux™ ultra HTS Microplate Imager (PerkinElmer, Inc.). All the results presented are means of several independent experiments and analyzed by non-linear regression methods using the commercially available program Prism (GraphPad, San Diego, Calif.) providing the EC50 values detailed in Table 3.
As to `CCCCc1nc(O)c(NS(=O)(=O)C[C@H](C)c2ncc(F)cn2)c(=O)n1-c1c(OC)cccc1OC` (single isomer, unassigned) [Example 4.5, (R)-N-(2-butyl-1-(2,6-dimethoxyphenyl)-4-hydroxy-6-oxo-1,6-dihydropyrimidin-5-yl)-2-(5-fluoropyrimidin-2-yl)propane-1-sulfonamide or (S)-N-(2-butyl-1-(2,6-dimethoxyphenyl)-4-hydroxy-6-oxo-1,6-dihydropyrimidin-5-yl)-2-(5-fluoropyrimidin-2-yl)propane-1-sulfonamide], the EC50 worked out at 11 nM. On the same count and under the same terms, the figure for `CCCCc1nc(O)c(NS(=O)(=O)C[C@@H](C)c2ncc(F)cn2)c(=O)n1-c1c(OC)cccc1OC` (single isomer, unassigned) [Example 4.6, (S)-N-(2-butyl-1-(2,6-dimethoxyphenyl)-4-hydroxy-6-oxo-1,6-dihydropyrimidin-5-yl)-2-(5-fluoropyrimidin-2-yl)propane-1-sulfonamide or (R)-N-(2-butyl-1-(2,6-dimethoxyphenyl)-4-hydroxy-6-oxo-1,6-dihydropyrimidin-5-yl)-2-(5-fluoropyrimidin-2-yl)propane-1-sulfonamide] is 20 nM; for `CCCCc1nc(O)c(NS(=O)(=O)[C@H]2CCCN(c3ncc(F)cn3)C2)c(=O)n1-c1c(OC)cccc1OC` (single isomer, unassigned) [Example 4.7, (S)-N-(2-butyl-1-(2,6-dimethoxyphenyl)-4-hydroxy-6-oxo-1,6-dihydropyrimidin-5-yl)-1-(5-fluoropyrimidin-2-yl)piperidine-3-sulfonamide or (R)-N-(2-butyl-1-(2,6-dimethoxyphenyl)-4-hydroxy-6-oxo-1,6-dihydropyrimidin-5-yl)-1-(5-fluoropyrimidin-2-yl)piperidine-3-sulfonamide] it is 78 nM; for `CCCCc1nc(O)c(NS(=O)(=O)CCc2ncc(F)cn2)c(=O)n1-c1c(OC)cccc1OC` [Example 4.0, N-(2-Butyl-1-(2,6-dimethoxyphenyl)-4-hydroxy-6-oxo-1,6-dihydropyrimidin-5-yl)-2-(5-fluoropyrimidin-2-yl)ethane-1-sulfonamide] it is 30 nM. Same read-out and setting: the figure for `CCCCc1nc(O)c(NS(=O)(=O)C(C)C)c(=O)n1-c1c(OC)cccc1OC` [Example 4.1, N-(2-butyl-1-(2,6-dimethoxyphenyl)-4-hydroxy-6-oxo-1,6-dihydropyrimidin-5-yl)propane-2-sulfonamide] is 745 nM; for `CCCCc1nc(O)c(NS(=O)(=O)[C@@H](C)[C@H](C)c2ncc(F)cn2)c(=O)n1-c1c(OC)cccc1OC` [Example 4.2, (2S,3R)-N-(2-butyl-1-(2,6-dimethoxyphenyl)-4-hydroxy-6-oxo-1,6-dihydropyrimidin-5-yl)-3-(5-fluoropyrimidin-2-yl)butane-2-sulfonamide] it is 27 nM. As to `CCCCc1nc(O)c(NS(=O)(=O)Cc2ccccc2)c(=O)n1-c1c(OC)cccc1OC` [Example 4.3, N-(2-butyl-1-(2,6-dimethoxyphenyl)-4-hydroxy-6-oxo-1,6-dihydropyrimidin-5-yl)-1-phenylmethanesulfonamidesulfonamide], the EC50 was determined as 194 nM. In the case of `CCCCc1nc(O)c(NS(=O)(=O)c2ccccc2)c(=O)n1-c1c(OC)cccc1OC` [Example 4.4a, N-(2-butyl-1-(2,6-dimethoxyphenyl)-4-hydroxy-6-oxo-1,6-dihydropyrimidin-5-yl)benzenesulfonamide], the EC50 was found to be 244 nM. With `CCCCc1nc(O)c(NS(=O)(=O)CCc2ccccc2)c(=O)n1-c1c(OC)cccc1OC` [Example 4.4b, N-(2-butyl-1-(2,6-dimethoxyphenyl)-4-hydroxy-6-oxo-1,6-dihydropyrimidin-5-yl)-2-phenylethane-1-sulfonamide], the EC50 was 193 nM. On the same count and under the same terms, the figure for `CCCCc1nc(O)c(NS(=O)(=O)[C@@H](C)[C@H](OC)c2ncc(C)cn2)c(=O)n1-c1c(OC)cccc1OC` [Example 4.8, (1R,2S)-N-(2-butyl-1-(2,6-dimethoxyphenyl)-4-hydroxy-6-oxo-1,6-dihydropyrimidin-5-yl)-1-methoxy-1-(5-methylpyrimidin-2-yl)propane-2-sulfonamide] is 86 nM. On the same count and under the same terms, the figure for `CCCCc1nc(O)c(NS(=O)(=O)C2CCCCC2)c(=O)n1-c1c(OC)cccc1OC` [Example 4.9, N-(2-butyl-1-(2,6-dimethoxyphenyl)-4-hydroxy-6-oxo-1,6-dihydro-5-pyrimidinyl)cyclohexanesulfonamide] is 193 nM. Take `COc1cccc(OC)c1-n1c(C2CCCC2)nc(O)c(NS(=O)(=O)CCc2ncc(F)cn2)c1=O` [Example 4.17, N-[2-cyclopentyl-1-(2,6-dimethoxyphenyl)-4-hydroxy-6-oxo-pyrimidin-5-yl]-2-(5-fluoropyrimidin-2-yl)ethanesulfonamide]: the EC50 was 2.8 nM. Still for that read-out and setting: the figure for `COc1cccc(OC)c1-n1c(-c2ccccc2)nc(O)c(NS(=O)(=O)CCc2ncc(F)cn2)c1=O` [Example 4.24, N-[1-(2,6-dimethoxyphenyl)-4-hydroxy-6-oxo-2-phenyl-pyrimidin-5-yl]-2-(5-fluoropyrimidin-2-yl)ethanesulfonamide] is 1.5 nM.

The target in another test is human APJ-AT1R (angiotensin Type 1) double stable CHO cell line (Homo sapiens (Human), UniProt P35414). Kind of test: IP1 accumulation (TR-FRET), APJ-AT1R double stable CHO cell line. Type of test: cell-based. The note with it: in the presence of AngII and APJ small molecule agonists. On the technique in general: In TR-FRET formats the signal depends on donor and acceptor labels being close together.
human APJ-AT1R (angiotensin Type 1) double stable CHO cell line, sequence (P35414 whole entry): as the sequence (P35414 whole entry) above
Protocol: Single and double stable recombinant cell lines were generated for human APJ and the AT1R receptor in CHO K1 cells tagged either with FLAG or hemagglutinin (HA) tag. Briefly, the CHO-K1 APJ/AT1R cells were seeded in culture medium of DMEM-F12 and 10% FBS at a density of 15 k/well in a 96 well plate overnight. The next day, the culture medium was replaced with medium containing no serum for 4 hours. The compound AngII at a range of concentrations (1 pM-10 μM) with or without different concentrations of APJ agonists were diluted in stimulation buffer and added to the cell plate. The plate was sealed and incubated for 1 hour. This was followed by addition of IP-d2 conjugate followed by europium cryptate antibody conjugate into the wells. The plate was sealed, followed with incubation for 2 hours at RT. Time-resolved fluorescence resonance energy (TR-FRET) at 620 nm and 665 nm was measured after 2 horns with an Envision reader. The signal ratios and delta F were calculated and the amount of IP1 produced was inversely proportional to the TR-FRET ratio, 665/620 nm.
Turning to `CCCCc1nc(Cl)c(CO)n1Cc1ccc(-c2ccccc2-c2nn[nH]n2)cc1` [losartan], the “effect of AT1R blockade on APJ agonist-induced cooperativity” value was “relieved this cooperativity and resulted in synergistic effects of enhancing the efficacy of the APJ receptor”.

The next test has as its target human AT1R receptor expressed in the CHO cell line (Homo sapiens (Human), UniProt P30556).
Experiment: not given
The note with it: AT1R expressed alone, no APJ expression.
On to pyr apelin-13, for which the “cooperativity on AngII-induced IP1 response” value is listed as “no positive cooperativity observed”.

The subject of a further test is heart failure rats. Kind of test: Cardiac function in heart failure rats in vivo. On the set-up: species or system rat. Conditions: captopril alone, acute settings. An excerpt:
The interaction between […] (ACE2) and Apelin biology is complicated. To investigate the interaction between the Apelin-APJ and ACE signalling pathways, we examined the improvement in cardiac function with APJ small molecule agonists in the presence of ACE inhibitor captopril in heart failure rats in vivo. […] However, in the presence of an APJ agonist, there was a shift in potency to the left with marked improvement in contractility and ejection fraction without changes in heart rate. These findings provide a new reference for the understanding of the regulation of ACE2 for the renin angiotensin aldosterone system (RAAS), independent of AT1R signaling and offer new potential drug targets for the treatment of diseases such as hypertension and heart failure. This work clearly establishes that combination of an agonist of the APJ receptor with an ARB such as losartan and/or with an ACE inhibitor such as captopril which may play an important role in providing greater efficacy in treating heart failure patients, for example in improving contractility and ejection fraction without changing the heart rate.
Consider `C[C@H](CS)C(=O)N1CCC[C@H]1C(=O)O` [Captopril, captopril], for which the “improvement in contractility or ejection fraction” value is “does not show a marked improvement in contractility or ejection fraction acutely”.

By EC50 is commonly meant the concentration giving half of the maximal effect.
